One data set has as its target T1, AT1 receptor (Rattus norvegicus, UniProt P25095).
T1 construct: from tissue; host or cells: rat liver membranes
T1 sequence (P25095 1-359): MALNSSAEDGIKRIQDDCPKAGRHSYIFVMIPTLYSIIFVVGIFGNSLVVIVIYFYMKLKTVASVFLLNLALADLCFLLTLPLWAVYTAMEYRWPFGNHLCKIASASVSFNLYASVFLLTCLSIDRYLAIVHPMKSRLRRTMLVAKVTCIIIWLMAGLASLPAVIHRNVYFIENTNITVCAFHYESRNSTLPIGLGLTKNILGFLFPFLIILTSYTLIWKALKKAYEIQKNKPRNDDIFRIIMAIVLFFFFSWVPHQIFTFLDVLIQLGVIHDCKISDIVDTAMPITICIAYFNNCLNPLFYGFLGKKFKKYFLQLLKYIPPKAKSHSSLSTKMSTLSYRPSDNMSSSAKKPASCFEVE
The data set is described as follows: Inhibition of [125I]Sar1,Ile8-angiotensin II binding in rat liver membranes. The note with it: for IC50: rat liver membranes. The protocol:
Antagonist activity at the AT1 receptor on the part of compounds provided by the invention was assessed as the capacity to inhibit binding of the specific AII agonist to rat liver membranes. The method described by R. S. L. Chang et al., [JPET (1992), 262, 133-38] and M. J. Robertson et al., [Br. J. Pharmacol. (1992), 107, 1173-1180] was used with slight modifications. The concentration of radioligand [[…]]-Sar1, Ile^8-angiotensin II used was 25 pM with a membrane content corresponding to a protein concentration of approx. 25 μg of protein per sample; the incubation time was 180 minutes at 25° C. Separation of the bound from the free was carried out by rapid filtration on GFB Millipore glass fibre filters.

Data set [1] concerns spontaneously hypertensive rat (SHR). The data set is described as follows: Reduction in systolic arterial pressure in the SHR rat after I.P. administration. The settings on record: for Max. effect at 15 mg/kg (% reduction vs. basal): 0-120 min, systolic pressure; for ED15 (0-120 min): sodium salts, doses 5-20 mg/kg, dose giving 15% reduction in average basal systolic pressure, NC = not calculable, effect < 10% at all doses. The data set is classed as in vivo.

Data set [2] deals with renally hypertensive rat (RHR). The data set is described as follows: Reduction in systolic arterial pressure in the RHR rat after I.P. administration. The data set is classed as in vivo. The note with it: for Max. effect at 15 mg/kg (% reduction vs. basal): 0-120 min, systolic pressure; for ED15 (0-120 min): sodium salts, doses 5-20 mg/kg, dose giving 15% reduction in average basal systolic pressure, NC = not calculable, effect < 10% at all doses.

The next data set in a line: in vitro. The settings on record: human, Caco-2. The protocol:
(§1) Gres et al. Pharm.; Res. 15 (1998), pages 726-733].
(§2) A→B permeability was thus assessed, namely the apparent permeability coefficient (Papp), of the compounds under investigation, tested at a concentration of 50 μM with an incubation time of 60 minutes, in the apical-to-basolateral direction. B→A permeability is reversely assessed, i.e. in a basolateral-to-apical direction, with an incubation time of 40 minutes.

Another data set relates to TC7 cell monolayer. The data set is described as follows: in vitro. The note with it: human, Caco-2, 50 μM. As to the method:
as §1, §2

[3] abbreviates: displacement of 25 pM [125I]-Sar1,Ile8-angiotensin II, 180 min at 25° C.

Consider `CCCCc1cc(CC(C)C)c(C=O)n1Cc1ccc(-c2ccccc2-c2nnn[nH]2)cc1` [Compound 1, 5-n-Butyl-1-[2′-(1H-tetrazol-5-yl)biphenyl-4-yl-methyl]-3-[3-(2-methyl)propyl]-2-pyrrolaldehyde], for which the melting point (as a rule, the temperature, or range, at which the solid turns liquid) stood at 148 °C. For the same compound, the “times more potent than the BPT-pyrrole derivative of EP-0323841” value at AT1 receptor (8.9 nM vs. 1.6 μM of compound 277 of EP 0 323 841) is “approx. 200 times”. In addition, at AT1 receptor (AT1 binding), the IC50 – broadly, the concentration that inhibits the measured activity by half – amounted to 8.9 nM. On AT1 receptor (respectively vs. valsartan and eprosartan), the “times less potent than valsartan and eprosartan in vitro” value was “approx. ⅗”. Further, in data set [1], the “Max. effect at 15 mg/kg (% reduction vs. basal)” value worked out at 16.0 % reduction vs. basal and the “ED15 (0-120 min)” value was 17.4 mg/kg. In addition, in data set [2], the “Max. effect at 15 mg/kg (% reduction vs. basal)” value came to 22.1 % reduction vs. basal and the “ED15 (0-120 min)” value was 12.6 mg/kg. Moreover, in “in vitro”, the apparent permeability from apical to basolateral (Papp A→B) – broadly, how fast a substance crosses the layer from the apical side – at 60 min, 50 μM was determined as 27.9 ×10⁻⁶ cm/s and the Papp B→A (usually the apparent permeability from the basolateral to the apical side of a cell layer) at 40 min, 50 μM was determined as 3.4 ×10⁻⁶ cm/s. Also, the “Ratio (1/2)” value with TC7 cell monolayer stood at 8.2.

Take `CCCc1ccc(C=O)n1Cc1ccc(-c2ccccc2-c2nnn[nH]2)cc1` [Compound 2, 5-n-Propyl-1-[2′-(1H-tetrazol-5-yl)biphenyl-4-yl-methyl]-2-pyrrolaldehyde]: the melting point was 104 °C. The same compound returned an IC50 at AT1 receptor (setting [3]) of 72.5 nM.

As to `CCCc1c(Br)cc(C=O)n1Cc1ccc(-c2ccccc2-c2nnn[nH]2)cc1` [Compound 3, 4-Bromo-5-n-propyl-1-[2′-(1H-tetrazol-5-yl)biphenyl-4-yl-methyl]-2-pyrrolaldehyde], the melting point worked out at 167 °C. Also, the half-maximal inhibitory concentration (IC50) at AT1 receptor (setting [3]) amounted to 1050 nM.

Turning to `CCCc1c(Cl)cc(C=O)n1Cc1ccc(-c2ccccc2-c2nnn[nH]2)cc1` [Compound 4, 4-Chloro-5-n-propyl-1-[2′-(1H-tetrazol-5-yl)biphenyl-4-yl-methyl]-2-pyrrolaldehyde], the melting point is 150 °C. The compound further returned an IC50 at AT1 receptor (setting [3]) of 615 nM.

`CCCc1cc(C(C)C)c(C=O)n1Cc1ccc(-c2ccccc2-c2nnn[nH]2)cc1` [Compound 5, 5-n-Propyl-3-isopropyl-1-[2′-(1H-tetrazol-5-yl)biphenyl-4-yl-methyl]-2-pyrrolaldehyde] yielded a melting point of 180 °C. In addition, the IC50 at AT1 receptor (setting [3]) was determined as 35.7 nM.

For the compound `CCCCc1cc(C(C)C)c(C=O)n1Cc1ccc(-c2ccccc2-c2nnn[nH]2)cc1` [Compound 6, 5-n-Butyl-3-isopropyl-1-[2′-(1H-tetrazol-5-yl)biphenyl-4-yl-methyl]-2-pyrrolaldehyde], the melting point was determined as 174 °C. This compound showed a half-maximal inhibitory concentration (IC50) on AT1 receptor (setting [3]) of 15.3 nM. Also, in data set [1], the “Max. effect at 15 mg/kg (% reduction vs. basal)” value is on record as 13.2 % reduction vs. basal and the “ED15 (0-120 min)” value was 19.3 mg/kg. Also, in data set [2], the “Max. effect at 15 mg/kg (% reduction vs. basal)” value came out at 18.7 % reduction vs. basal and the “ED15 (0-120 min)” value is 16.0 mg/kg. Also, in “in vitro”, the Papp A→B at 60 min, 50 μM worked out at 15.4 ×10⁻⁶ cm/s and the basolateral-to-apical permeability (Papp B→A) at 40 min, 50 μM amounted to 1 ×10⁻⁶ cm/s. Moreover, the “Ratio (1/2)” value in the data set with TC7 cell monolayer was 15.4.

`CCCCc1ccc(C=O)n1Cc1ccc(-c2ccccc2-c2nnn[nH]2)cc1` [Compound 7, 5-n-Butyl-1-[2′-(1H-tetrazol-5-yl)biphenyl-4-yl-methyl]-2-pyrrolaldehyde] displayed a melting point of 129 °C. Besides, the IC50 at AT1 receptor (setting [3]) worked out at 66.5 nM.

`CCCCCc1cc(C(C)C)c(C=O)n1Cc1ccc(-c2ccccc2-c2nnn[nH]2)cc1` [Compound 8, 5-n-Pentyl-3-isopropyl-1-[2′-(1H-tetrazol-5-yl)biphenyl-4-yl-methyl]-2-pyrrolaldehyde] had a melting point of 144 °C. The compound also came in with an IC50 on AT1 receptor (setting [3]) of 105 nM.

In turn, `CC(C)CCc1cc(C(C)C)c(C=O)n1Cc1ccc(-c2ccccc2-c2nnn[nH]2)cc1` [Compound 9, 5-[(3-Methyl)butyl]-3-isopropyl-1-[2′-(1H-tetrazol-5-yl)biphenyl-4-yl-methyl]-2-pyrrolaldehyde] yielded a melting point of 144 °C. The compound further displayed a 50% inhibitory concentration (IC50) at AT1 receptor (setting [3]) of 37.2 nM.

In turn, `CCCc1ccc(C(=O)O)n1Cc1ccc(-c2ccccc2-c2nnn[nH]2)cc1` [Compound 10, 5-n-Propyl-1-[2′-(1H-tetrazol-5-yl)biphenyl-4-yl-methyl]-2-pyrrolecarboxylic acid] came in with a melting point of 134 °C. This compound also came in with an IC50 at AT1 receptor (setting [3]) of 475 nM.

Compound `CCCc1cc(C(C)C)c(C(=O)O)n1Cc1ccc(-c2ccccc2-c2nnn[nH]2)cc1` [Compound 11, 5-n-Propyl-3-isopropyl-1-[2′-(1H-tetrazol-5-yl)biphenyl-4-yl-methyl]-2-pyrrolecarboxylic acid] displayed a melting point of 170 °C. On AT1 receptor (setting [3]), the half-inhibitory concentration (IC50) was determined as 106 nM.

`CCCCc1ccc(C(=O)O)n1Cc1ccc(-c2ccccc2-c2nnn[nH]2)cc1` [Compound 12, 5-n-Butyl-1-[2′-(1H-tetrazol-5-yl)biphenyl-4-yl-methyl]-2-pyrrolecarboxylic acid] displayed a melting point of 142 °C. At AT1 receptor (setting [3]), this compound showed a half-inhibitory concentration (IC50) of 268 nM.

The compound `CCCc1ccc(CO)n1Cc1ccc(-c2ccccc2-c2nnn[nH]2)cc1` [Compound 13] returned a half-maximal inhibitory concentration (IC50) at AT1 receptor (setting [3]) of 444 nM.

In the case of `Cc1ccc(C)n1Cc1ccc(-c2ccccc2-c2nnn[nH]2)cc1` [Compound 14, 2,5-Dimethyl-1-[2′-(1H-tetrazol-5-yl)biphenyl-4-yl-methyl]pyrrole], the melting point is 107 °C. The compound further returned an IC50 at AT1 receptor (setting [3]) of 10700 nM.

Consider `CCCc1cc(C(C)C)c(C)n1Cc1ccc(-c2ccccc2-c2nnn[nH]2)cc1` [Compound 15, 2-Methyl-5-n-propyl-3-isopropyl-1-[2′-(1H-tetrazol-5-yl)biphenyl-4-yl-methyl]pyrrole], for which the melting point came out at 160 °C. Moreover, the 50% inhibitory concentration (IC50) at AT1 receptor (setting [3]) came out at 1190 nM.

For `CCCCc1ncc(/C=C(\Cc2cccs2)C(=O)O)n1Cc1ccc(C(=O)O)cc1` [Eprosartan, eprosartan, reference compound], the “Max. effect at 15 mg/kg (% reduction vs. basal)” value in data set [1] amounted to 5.0 % reduction vs. basal. Further, the “Max. effect at 15 mg/kg (% reduction vs. basal)” value in data set [2] was determined as 9.2 % reduction vs. basal. In addition, in the data set “in vitro”, the Papp A→B at 60 min, 50 μM amounted to 0.1 ×10⁻⁶ cm/s and the apparent permeability from basolateral to apical (Papp B→A) at 40 min, 50 μM was 0.4 ×10⁻⁶ cm/s.

Consider `CCCCc1nc(Cl)c(CO)n1Cc1ccc(-c2ccccc2-c2nn[nH]n2)cc1` [Losartan, losartan], for which, in data set [1], the “Max. effect at 15 mg/kg (% reduction vs. basal)” value was 12.0 % reduction vs. basal and the “ED15 (0-120 min)” value is recorded as 25.4 mg/kg. Moreover, in data set [2], the “Max. effect at 15 mg/kg (% reduction vs. basal)” value was determined as 18.9 % reduction vs. basal and the “ED15 (0-120 min)” value is 16.4 mg/kg.

Compound `CCCCC(=O)N(Cc1ccc(-c2ccccc2-c2nnn[nH]2)cc1)[C@H](C(=O)O)C(C)C` [Valsartan, valsartan, reference compound] returned an IC50 on AT1 receptor (setting [3]) of 3.4 nM. Moreover, in data set [1], the “Max. effect at 15 mg/kg (% reduction vs. basal)” value is recorded as 14.4 % reduction vs. basal and the “ED15 (0-120 min)” value was 26.2 mg/kg. Also, in data set [2], the “Max. effect at 15 mg/kg (% reduction vs. basal)” value is recorded as 19.0 % reduction vs. basal and the “ED15 (0-120 min)” value is listed as 16.0 mg/kg. In “in vitro”, this compound came in with a Papp A→B at 60 min, 50 μM of 0.2 ×10⁻⁶ cm/s and a basolateral-to-apical permeability (Papp B→A) at 40 min, 50 μM of 0.2 ×10⁻⁶ cm/s. For the same compound, the “Ratio (1/2)” value in the data set with TC7 cell monolayer is 1.0.

The values are drawn from patent publication US7906501B2, “Pyrrole derivatives with angiotensin II antagonist activity” (Rottapharm S.p.A., priority 2004, dated 2011).
